Experimental data from patent publication US7169579B2, “Method of isolating Streptococcus sobrinus and selection medium” (Nihon University, priority 2001, dated 2007).
≈ marks a conversion by molar mass, not a printed value. Read-outs that look alike come from different tables or passages of the source.

Key:
Assay type in all cases: cell-based
[1] = test system: Streptococcus sobrinus; assay: Susceptibility test to antibiotics, microbroth dilution method (MIC)
Experimental: (§1) The susceptibility test was carried out in accordance with microbroth dilution method.
(§2) The above-described antibiotics were dissolved in an appropriate solution, respectively, and the respective antibiotic solutions were divided into serial two-fold dilutions in a 96-well microtiter plates containing BHI broth. The bacteria were precultured in BHI broth, respectively, and inoculated into the wells containing the antibiotic solution to make a final concentration of the bacteria to be 1×10^4 cells/well, respectively. The plates were anaerobically incubated at a temperature of 37° C. for 48 hours. After mixing the broth in each well by the use of a pipette, the absorbance at 550 nm in each well was measured with a microplate reader (manufactured by Corona Electric Co., Ibaraki, Japan), to determine bacterial growth. The antibiotic concentration at which no bacterial growth was observed was defined as the minimal inhibitory concentration (MIC).

[2] = test system: Streptococcus mutans; assay: as above; settings: for susceptibilities of Streptococcus mutans relative to those of Streptococcus sobrinus: from MICs of Table 2; for difference between Streptococcus mutans and Streptococcus sobrinus in their susceptibilities: in words, from MICs of Tables 2 and 3
Experimental: as §1, §2

[3] = test system: Streptococcus sobrinus; assay: Recovery from no-growth wells on MS agar: bactericidal or bacteriostatic
Experimental: (§3) Aliquots of 10 μl of the broth in the well, which no bacterial growth was observed were inoculated onto Mitis Salivarius Agar (MS medium; manufactured by Difco) plates, respectively, and anaerobically incubated at a temperature of 37° C. for 48 hours. The recovery of the inoculated bacteria was calculated to estimate which the mechanism of growth inhibition was bactericidal or bacteriostatic.

[4] = test system: Streptococcus mutans; assay: as above
Experimental: as §3

[5] = Streptococcus sobrinus, Streptococcus sobrinus 0MZ176 (serotype d), read-out: MIC
[6] = Streptococcus sobrinus, Streptococcus sobrinus B-13 (serotype d), read-out: MIC
[7] = Streptococcus sobrinus, Streptococcus sobrinus NIDR6715, serotype g, read-out: MIC
[8] = Streptococcus sobrinus, Streptococcus sobrinus NUM-Ssd1, serotype d, read-out: MIC
[9] = Streptococcus sobrinus, Streptococcus sobrinus NUM-Ssd2, serotype d, read-out: MIC
[10] = Streptococcus sobrinus, Streptococcus sobrinus OMZ65, serotype g, read-out: MIC
[11] = Streptococcus sobrinus, strains of Table 2, read-out: MIC to Streptococcus sobrinus
[12] = Streptococcus mutans, Streptococcus mutans 10449 (serotype c), read-out: MIC
[13] = Streptococcus mutans, Streptococcus mutans Ingbritt, serotype c, read-out: MIC
[14] = Streptococcus mutans, Streptococcus mutans JC2 (serotype c), read-out: MIC
[15] = Streptococcus mutans, Streptococcus mutans LM7, serotype e, read-out: MIC
[16] = Streptococcus mutans, Streptococcus mutans NUM-Sme1, serotype e, read-out: MIC
[17] = Streptococcus mutans, Streptococcus mutans NUM-Smf1, serotype f, read-out: MIC
[18] = Streptococcus mutans, Streptococcus mutans OMZ175, serotype f, read-out: MIC
[19] = Streptococcus mutans, Streptococcus mutans PS14, serotype c, read-out: MIC
[20] = Streptococcus mutans, strains of Table 2, read-out: MIC to Streptococcus mutans
[21] = Streptococcus mutans, strains of serotype f of Streptococcus mutans, summary of Table 3, read-out: MIC
[22] = Streptococcus mutans, strains of serotypes c and e of Streptococcus mutans, summary of Table 3, read-out: MIC
[23] = Streptococcus sobrinus strains of Table 3
[24] = Streptococcus sobrinus, strains of Table 2
[25] = Streptococcus mutans strains of Table 3
[26] = Streptococcus mutans, strains of Table 2
[27] = Streptococcus mutans 10449 (serotype c)

C[C@H]1[C@H](NC(=O)/C(=N\OC(C)(C)C(=O)O)c2csc(N)n2)C(=O)N1S(=O)(=O)O [Aztreonam]
MIC [1, 5]: 2000 mg/L (≈ 4590 µM) | MIC [1, 6]: 2000 mg/L (≈ 4590 µM) | MIC [1, 7]: 2000 mg/L (≈ 4590 µM) | MIC [1, 8]: 2000 mg/L (≈ 4590 µM) | MIC [1, 9]: 2000 mg/L (≈ 4590 µM) | MIC [1, 10]: 2000 mg/L (≈ 4590 µM) | MIC [1, 11]: 2000 mg/L (≈ 4590 µM) | MIC [2, 12]: 125 mg/L (≈ 287 µM) | MIC [2, 13]: 125 mg/L (≈ 287 µM) | MIC [2, 14]: 125 mg/L (≈ 287 µM) | MIC [2, 15]: 125 mg/L (≈ 287 µM) | MIC [2, 16]: 125 mg/L (≈ 287 µM) | MIC [2, 17]: 250 mg/L (≈ 574 µM) | MIC [2, 18]: 250 mg/L (≈ 574 µM) | MIC [2, 19]: 125 mg/L (≈ 287 µM) | MIC [2, 20]: 125 mg/L (≈ 287 µM) | MIC [2, 21]: 250 mg/L (≈ 574 µM) | MIC [2, 22]: 125 mg/L (≈ 287 µM) | susceptibilities of Streptococcus mutans relative to those of Streptococcus sobrinus [2]: 16 fold | mode of action (bactericidal or bacteriostatic) [3, 23]: bactericidal | mode of action (bactericidal or bacteriostatic) [3, 24]: bactericidal | mode of action (bactericidal or bacteriostatic) [4, 25]: bactericidal | mode of action (bactericidal or bacteriostatic) [4, 26]: bactericidal

CC1(C)S[C@@H]2[C@H](NC(=O)Cc3ccccc3)C(=O)N2[C@H]1C(=O)O [Benzylpenicillin]
MIC [1, 5]: 0.05 mg/L (≈ 0.15 µM) | MIC [1, 6]: 0.05 mg/L (≈ 0.15 µM) | susceptibilities of Streptococcus sobrinus relative to those of Streptococcus mutans ([1]; from MICs of Table 2): twice as high | MIC [2, 12]: 0.1 mg/L (≈ 0.299 µM) | MIC [2, 14]: 0.1 mg/L (≈ 0.299 µM)

NC(=O)OC[C@@H]1[C@H](NC(=O)/C(=N\OCC(=O)O)c2csc(N)n2)C(=O)N1S(=O)(=O)O [Carumonam]
MIC [1, 5]: 2000 mg/L (≈ 4290 µM) | MIC [1, 6]: 2000 mg/L (≈ 4290 µM) | MIC [1, 7]: 2000 mg/L (≈ 4290 µM) | MIC [1, 8]: 2000 mg/L (≈ 4290 µM) | MIC [1, 9]: 2000 mg/L (≈ 4290 µM) | MIC [1, 10]: 1000 mg/L (≈ 2140 µM) | MIC [1, 11]: 2000 mg/L (≈ 4290 µM) | MIC [2, 12]: 125 mg/L (≈ 268 µM) | MIC [2, 13]: 125 mg/L (≈ 268 µM) | MIC [2, 14]: 125 mg/L (≈ 268 µM) | MIC [2, 15]: 125 mg/L (≈ 268 µM) | MIC [2, 16]: 125 mg/L (≈ 268 µM) | MIC [2, 17]: 250 mg/L (≈ 536 µM) | MIC [2, 18]: 250 mg/L (≈ 536 µM) | MIC [2, 19]: 125 mg/L (≈ 268 µM) | MIC [2, 20]: 125 mg/L (≈ 268 µM) | MIC [2, 21]: 250 mg/L (≈ 536 µM) | MIC [2, 22]: 125 mg/L (≈ 268 µM) | susceptibilities of Streptococcus mutans relative to those of Streptococcus sobrinus [2]: 16 fold | mode of action (bactericidal or bacteriostatic) [3, 23]: bactericidal | mode of action (bactericidal or bacteriostatic) [3, 24]: bactericidal | mode of action (bactericidal or bacteriostatic) [4, 25]: bactericidal | mode of action (bactericidal or bacteriostatic) [4, 26]: bactericidal

Cc1nnc(SCC2=C(C(=O)O)N3C(=O)[C@@H](NC(=O)Cn4cnnn4)[C@H]3SC2)s1 [Cefazoline]
MIC [1, 5]: 0.25 mg/L (≈ 0.55 µM) | MIC [1, 6]: 0.5 mg/L (≈ 1.1 µM) | MIC [2, 12]: 0.25 mg/L (≈ 0.55 µM) | MIC [2, 14]: 0.25 mg/L (≈ 0.55 µM) | difference between Streptococcus mutans and Streptococcus sobrinus in their susceptibilities [2]: no significant difference

CO[C@@]1(NC(=O)Cc2cccs2)C(=O)N2C(C(=O)O)=C(COC(N)=O)CS[C@@H]21 [Cefoxitin]
susceptibility of OMZ176 strain relative to the other bacterial strains ([1]; Streptococcus sobrinus OMZ176 vs other strains of Table 2): approximately 4 times | MIC [1, 5]: 12.5 mg/L (≈ 29.2 µM) | MIC [1, 6]: 3.13 mg/L (≈ 7.32 µM) | MIC [2, 12]: 3.13 mg/L (≈ 7.32 µM) | MIC [2, 14]: 3.13 mg/L (≈ 7.32 µM) | difference between Streptococcus mutans and Streptococcus sobrinus in their susceptibilities [2]: no significant difference

CC1=C(C(=O)O)N2C(=O)[C@@H](NC(=O)[C@H](N)c3ccccc3)[C@H]2SC1 [Cephalexin]
MIC [1, 5]: 1.25 mg/L (≈ 3.6 µM) | MIC [1, 6]: 1.25 mg/L (≈ 3.6 µM) | MIC [2, 12]: 1.25 mg/L (≈ 3.6 µM) | MIC [2, 14]: 1.25 mg/L (≈ 3.6 µM) | difference between Streptococcus mutans and Streptococcus sobrinus in their susceptibilities [2]: no significant difference

O=C(Cc1cccs1)N[C@@H]1C(=O)N2C(C(=O)[O-])=C(C[n+]3ccccc3)CS[C@H]12 [Cephaloridine]
MIC ([1]; Streptococcus sobrinus): 0.025 mg/L (≈ 0.0602 µM) | MIC ([1]; Streptococcus sobrinus B-13 (serotype d)): 0.025 mg/L (≈ 0.0602 µM) | MIC ([2]; Streptococcus mutans): 0.025 mg/L (≈ 0.0602 µM) | MIC [2, 27]: 0.025 mg/L (≈ 0.0602 µM) | difference between Streptococcus mutans and Streptococcus sobrinus in their susceptibilities [2]: no significant difference

Cc1onc(-c2ccccc2Cl)c1C(=O)N[C@@H]1C(=O)N2[C@@H]1SC(C)(C)[C@@H]2C(=O)O [Cloxacillin]
MIC [1, 5]: 1.25 mg/L (≈ 2.87 µM) | MIC [1, 6]: 1.25 mg/L (≈ 2.87 µM) | MIC [2, 12]: 0.63 mg/L (≈ 1.45 µM) | MIC [2, 14]: 0.63 mg/L (≈ 1.45 µM) | susceptibilities of Streptococcus mutans relative to those of Streptococcus sobrinus [2]: twice as high

C[C@@H](O)[C@H]1C(=O)N2C(C(=O)O)=C(SCCN=CN)C[C@H]12 [Imipenem]
MIC [1, 5]: 0.031 mg/L (≈ 0.104 µM) | MIC [1, 6]: 0.016 mg/L (≈ 0.0534 µM) | MIC ([2]; Streptococcus mutans): 0.125 mg/L (≈ 0.418 µM) | MIC [2, 27]: 0.125 mg/L (≈ 0.418 µM)
